Strand notation (5' to 3'): a small letter for the sugar, then the base; units joined by * are phosphorothioate-linked, units joined directly phosphodiester-linked; [ ] holds rarer units or linkages, { } end groups; capitals alone tell only the bases. e = 2'-O-(2-methoxyethyl) (MOE); [5mC] = 5-methylcytosine; d = 2'-deoxy (DNA)
Test system: human SMAD7 mRNA
Test: Antisense inhibition of human SMAD7 mRNA expression in Hep3B cells by 5-10-5 MOE gapmers, single concentration, electroporation, RT-PCR (Example 1, Study 1 and 2)
Type: cell-based
How it was run: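 Readout is percent SMAD7 mRNA inhibition versus untreated cells, measured by qRT-PCR (RTS5062) and corrected for total RNA by RIBOGREEN. Oligonucleotide, 5,000 nM or 15,000 nM, was delivered by electroporation into Hep3B cells at 20,000 per well. RNA was collected about 24 h later.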

[1] = electroporation with 15,000 nM antisense oligonucleotide (Study 2), 5-10-5 MOE gapmers targeting SEQ ID NO: 1 and 2
[2] = Study 2, electroporation with 15,000 nM antisense oligonucleotide, 5-10-5 MOE gapmers targeting SEQ ID NO: 1 and 2
[3] = electroporation, 15,000 nM antisense oligonucleotide (Study 2), 5-10-5 MOE gapmers targeting SEQ ID NO: 1 and 2
[4] = electroporation, 15,000 nM, approximately 24 hours, relative to untreated control cells, gapmers targeting SEQ ID NO: 1 and 2
[5] = electroporation, 5,000 nM, approximately 24 hours, relative to untreated control cells, gapmers targeting SEQ ID NO: 1 and 2

Substance: 771674 (antisense eA*eT*eA*eA*eA*dT*d[5mC]*dT*d[5mC]*dA*dG*dG*dT*dT*dT*eT*eT*eT*eT*eT) [compound 771674]
- % inhibition of SMAD7 mRNA expression [1]: 0%

Substance: 771362 (antisense eG*eT*eA*eA*eG*dA*d[5mC]*dA*dG*dA*d[5mC]*d[5mC]*dA*d[5mC]*dA*eG*e[5mC]*eA*e[5mC]*e[5mC]) [compound 771362]
- % Inhibition [2]: 15%

Substance: 771379 (antisense eG*eA*eT*e[5mC]*e[5mC]*dA*dT*d[5mC]*dT*dT*dT*dA*dA*dG*d[5mC]*eA*e[5mC]*eG*e[5mC]*eT) [compound 771379]
- % Inhibition of SMAD7 mRNA [1]: 21%
- % inhibition of SMAD7 mRNA expression [3]: 0%

Substance: 771866 (antisense eG*e[5mC]*eA*eT*eT*dT*dT*dT*d[5mC]*dT*dG*dA*dA*d[5mC]*dA*eG*eA*eG*eT*e[5mC]) [compound 771866]
- % inhibition of SMAD7 mRNA expression [3]: 34%

Substance: 771945 (antisense eT*eT*eA*eT*eG*dT*dG*dT*d[5mC]*dT*d[5mC]*dA*dA*dA*dT*eA*eG*eA*eT*eG) [compound 771945]
- % inhibition of SMAD7 mRNA expression [3]: 0%

Substance: 771601 (antisense eG*eA*eT*eG*eG*d[5mC]*d[5mC]*dA*dA*dA*dA*dA*dA*dG*dA*eA*eA*eG*eA*e[5mC]) [compound 771601]
- % inhibition of SMAD7 mRNA expression [3]: 13%

Substance: 771575 (antisense eA*e[5mC]*e[5mC]*eG*e[5mC]*dT*dT*dG*dG*dG*dA*d[5mC]*dT*dG*d[5mC]*eA*eA*eA*e[5mC]*e[5mC]) [compound 771575]
- % inhibition of SMAD7 mRNA expression [2]: 47%

Substance: 771727 (antisense eA*eA*e[5mC]*eA*eT*dG*dG*d[5mC]*d[5mC]*dT*dT*dT*d[5mC]*dT*dT*eT*eT*e[5mC]*eT*eA) [compound 771727]
- % Inhibition [2]: 0%

Substance: 771546 (antisense eT*eA*e[5mC]*e[5mC]*eT*dG*d[5mC]*d[5mC]*d[5mC]*d[5mC]*dT*dT*d[5mC]*dT*dT*e[5mC]*e[5mC]*eA*eA*eA) [compound 771546]
- % inhibition of SMAD7 mRNA expression [3]: 26%

Substance: 771567 (antisense eG*eG*eG*eA*e[5mC]*dA*dT*d[5mC]*d[5mC]*dA*dT*dA*dA*dG*dA*eG*eA*e[5mC]*eA*e[5mC]) [compound 771567]
- % inhibition of SMAD7 mRNA expression [2]: 39%

Substance: 771952 (antisense eT*e[5mC]*eT*eT*e[5mC]*dT*d[5mC]*dT*dG*d[5mC]*dA*dG*dA*dG*d[5mC]*eA*e[5mC]*eA*eG*eA) [compound 771952]
- % Inhibition of SMAD7 mRNA [1]: 26%
- % inhibition of SMAD7 mRNA expression [3]: 0%

Substance: 771514 (antisense eT*eT*eA*eG*e[5mC]*dA*dG*d[5mC]*dA*dA*dA*dG*dT*dA*dG*eT*eT*eT*eG*eA) [compound 771514]
- % inhibition of SMAD7 mRNA expression [3]: 19%

Substance: 771613 (antisense e[5mC]*eT*eA*eA*eG*dT*d[5mC]*d[5mC]*dG*dG*dG*dA*dA*dA*dA*eA*e[5mC]*e[5mC]*eT*eG) [compound 771613]
- % inhibition of SMAD7 mRNA expression [4]: 21%

Substance: 771452 (antisense eG*eG*eT*eA*eT*d[5mC]*dT*dG*dG*dA*dG*dT*dA*dA*dG*eG*eA*eG*eG*eG) [compound 771452]
- % Inhibition [2]: 55%
- % inhibition of SMAD7 mRNA expression [5]: 25%

Substance: 771714 (antisense eT*e[5mC]*eT*eG*eG*dA*d[5mC]*dT*dA*dA*dA*dG*d[5mC]*dT*dT*e[5mC]*e[5mC]*eA*e[5mC]*eG) [compound 771714]
- % inhibition of SMAD7 mRNA expression [3]: 44%

Substance: 771927 (antisense eG*e[5mC]*e[5mC]*e[5mC]*eA*d[5mC]*dA*dG*d[5mC]*d[5mC]*d[5mC]*dA*d[5mC]*dA*d[5mC]*eG*eA*eG*eT*e[5mC]) [compound 771927]
- % Inhibition [2]: 0%

Substance: 771828 (antisense eG*e[5mC]*e[5mC]*e[5mC]*eT*dA*dG*dA*dA*d[5mC]*dT*dT*dG*dG*dG*e[5mC]*eA*eA*eG*eG) [compound 771828]
- % Inhibition [2]: 8%

Substance: 771802 (antisense e[5mC]*e[5mC]*eT*eT*eG*dA*dG*dA*dT*d[5mC]*d[5mC]*dA*dT*dG*dG*eG*eA*eG*e[5mC]*eA) [compound 771802]
- % inhibition of SMAD7 mRNA expression [3]: 40%

Substance: 483665 (antisense eG*e[5mC]*eG*eA*eA*d[5mC]*dA*dT*dG*dA*d[5mC]*d[5mC]*dT*d[5mC]*d[5mC]*eG*e[5mC]*eA*e[5mC]*eA) [compound 483665]
- % Inhibition [2]: 55%
- % inhibition of SMAD7 mRNA expression [5]: 10%

Substance: 771764 (antisense eA*e[5mC]*eA*e[5mC]*eT*dT*d[5mC]*dA*d[5mC]*dA*d[5mC]*dA*d[5mC]*d[5mC]*dA*eA*eA*eG*e[5mC]*eA) [compound 771764]
- % Inhibition [2]: 20%

Substance: 771826 (antisense e[5mC]*eA*e[5mC]*e[5mC]*eA*dT*d[5mC]*d[5mC]*dT*dG*dG*dT*dT*d[5mC]*dG*e[5mC]*eA*eG*eT*e[5mC]) [compound 771826]
- % inhibition of SMAD7 mRNA expression [3]: 31%

Substance: 771888 (antisense eT*e[5mC]*eG*e[5mC]*e[5mC]*dA*dT*dG*dG*dA*dG*dA*dA*dT*dG*eT*eA*eA*eT*eT) [compound 771888]
- % Inhibition of SMAD7 mRNA [1]: 21%
- % inhibition of SMAD7 mRNA expression [3]: 0%

Substance: 771483 (antisense eA*e[5mC]*eG*eG*e[5mC]*dT*dG*d[5mC]*dT*dG*d[5mC]*dA*dT*dA*dA*eA*e[5mC]*eT*e[5mC]*eG) [compound 771483]
- % inhibition of SMAD7 mRNA expression [3]: 22%

Substance: 771870 (antisense eA*eG*eG*e[5mC]*eA*d[5mC]*dA*dA*dG*dT*d[5mC]*dA*dA*dG*dG*eA*eG*eG*e[5mC]*e[5mC]) [compound 771870]
- % Inhibition [2]: 15%

Substance: 771481 (antisense eG*e[5mC]*eA*eG*eG*d[5mC]*dT*dG*dT*dA*d[5mC]*dG*d[5mC]*d[5mC]*dT*eT*e[5mC]*eT*e[5mC]*eG) [compound 771481]
- % Inhibition of SMAD7 mRNA [1]: 26%
- % inhibition of SMAD7 mRNA expression [3]: 0%

Substance: 771924 (antisense eT*e[5mC]*eG*e[5mC]*eT*dG*dA*dT*dA*dG*dT*dT*dA*dA*d[5mC]*e[5mC]*eT*e[5mC]*eT*eG) [compound 771924]
- % Inhibition [2]: 9%

Substance: 771432 (e[5mC]*eA*eG*eT*eT*dT*d[5mC]*dT*dT*dG*dA*dG*d[5mC]*dA*d[5mC]*e[5mC]*eG*eA*eG*eT; antisense) [compound 771432]
- % Inhibition [2]: 28%

Substance: 771417 (eA*e[5mC]*e[5mC]*eG*eG*d[5mC]*d[5mC]*d[5mC]*d[5mC]*dA*dT*dG*d[5mC]*dG*d[5mC]*eT*e[5mC]*eG*eG*e[5mC]; antisense) [compound 771417]
- % Inhibition of SMAD7 mRNA [1]: 24%
- % inhibition of SMAD7 mRNA expression [3]: 16%

Substance: 771621 (antisense eA*e[5mC]*eA*e[5mC]*eA*d[5mC]*dA*dG*dG*dA*dT*dG*dG*dG*dA*eG*e[5mC]*eA*eG*eG) [compound 771621]
- % inhibition of SMAD7 mRNA expression [4]: 36%

Substance: 771446 (e[5mC]*eA*e[5mC]*eA*eG*d[5mC]*d[5mC]*dT*d[5mC]*dT*dT*dG*dA*d[5mC]*dT*eT*e[5mC]*e[5mC]*eG*eA; antisense) [compound 771446]
- % inhibition of SMAD7 mRNA expression [4]: 55%

Substance: 771543 (antisense e[5mC]*e[5mC]*e[5mC]*e[5mC]*eA*dA*d[5mC]*dA*dA*dT*dT*d[5mC]*dT*dT*dT*eT*e[5mC]*eA*eT*eA) [compound 771543]
- % inhibition of SMAD7 mRNA expression [2]: 36%

Substance: 771489 (antisense e[5mC]*eA*eA*eA*eG*d[5mC]*dT*dG*dA*dT*d[5mC]*dT*dG*d[5mC]*dA*e[5mC]*eG*eG*eT*eA) [compound 771489]
- % Inhibition of SMAD7 mRNA [1]: 34%
- % inhibition of SMAD7 mRNA expression [3]: 27%

Substance: 771644 (antisense eG*eA*eA*eG*eA*dA*dA*dT*dG*dA*dA*dA*dG*dA*dA*eG*eA*eG*eT*eT) [compound 771644]
- % inhibition of SMAD7 mRNA expression [2]: 0%

Substance: 771730 (antisense eA*eA*eT*eG*e[5mC]*d[5mC]*d[5mC]*d[5mC]*d[5mC]*dG*dG*d[5mC]*d[5mC]*dA*d[5mC]*eA*eG*e[5mC]*eA*eG) [compound 771730]
- % inhibition of SMAD7 mRNA expression [3]: 27%

Substance: 771598 (antisense eG*eA*eA*eG*eG*dG*dA*dA*dT*dA*dA*dG*dA*d[5mC]*dA*eA*eG*eG*eA*eT) [compound 771598]
- % inhibition of SMAD7 mRNA expression [2]: 34%

Substance: 771926 (antisense eA*e[5mC]*eA*eA*eA*dG*dG*dT*d[5mC]*dT*dG*dT*dG*dT*dG*eG*eA*e[5mC]*eG*e[5mC]) [compound 771926]
- % Inhibition [2]: 13%

Substance: 771676 (antisense eT*eG*eT*eT*eT*dA*dT*dA*d[5mC]*dA*d[5mC]*dA*dT*dT*dG*e[5mC]*eA*e[5mC]*eA*eA) [compound 771676]
- % inhibition of SMAD7 mRNA expression [2]: 2%

Substance: 771360 (antisense eA*e[5mC]*e[5mC]*eT*eT*dG*dT*d[5mC]*dA*d[5mC]*d[5mC]*d[5mC]*dG*dT*d[5mC]*eT*eG*eG*eG*e[5mC]) [compound 771360]
- % inhibition of SMAD7 mRNA expression [4]: 49%

Substance: 771384 (antisense eT*eG*e[5mC]*eT*eG*dT*dG*dG*dA*dT*dT*dT*dG*dA*dA*eA*eA*eG*eG*eG) [compound 771384]
- % inhibition of SMAD7 mRNA expression [4]: 18%

Substance: 771816 (antisense eA*eT*e[5mC]*e[5mC]*eA*dA*d[5mC]*dT*dA*d[5mC]*dT*d[5mC]*dA*dG*dA*eG*eG*e[5mC]*eT*eG) [compound 771816]
- % Inhibition of SMAD7 mRNA [1]: 28%
- % inhibition of SMAD7 mRNA expression [3]: 27%

Substance: 771607 (antisense eG*eG*eT*eG*eA*dG*d[5mC]*dA*dA*dT*dA*d[5mC]*dT*dG*dT*eG*eA*eG*eG*eG) [compound 771607]
- % inhibition of SMAD7 mRNA expression [2]: 34%

Substance: 771662 (antisense eA*eT*eG*eA*eG*dA*dA*dT*dG*d[5mC]*dT*dT*d[5mC]*dT*d[5mC]*eT*eT*eG*eT*eT) [compound 771662]
- % inhibition of SMAD7 mRNA expression [2]: 29%

Substance: 771612 (antisense eT*e[5mC]*e[5mC]*eG*eG*dG*dA*dA*dA*dA*dA*d[5mC]*d[5mC]*dT*dG*eA*eT*eG*eT*e[5mC]) [compound 771612]
- % inhibition of SMAD7 mRNA expression [2]: 3%

From patent US10517889B2, “Modulators of SMAD7 expression” (Ionis Pharmaceuticals, Inc., priority 2017, dated 2019)
